# Data published in patent EP0256125A1, “MEANS FOR PREVENTING MICROBIOLOGICAL OVERGROWING OF HARD SURFACE” (priority 1985, dated 1987).
# Legend:
# Acremonium charticola = experiment: Fungicidal activity, inhibition of mycelium growth on wort agar; type: cell-based; settings: Acremonium charticola, 120 h, read-out: Hemmung des Myzeliums am 5. Tag des Wachstums, Acremonium charticola
# Source text: (§1) Man prüfte die funguzide Aktivität von Zink-bis-(N-vi- nyloxyethyl)dithiocarbamat gegenüber den reinen Pilzkulturen: Gladosporium resinae, Cladosporium cladosporioides, Acremonium corvum, Acremonium charticola, Penicillium charlesii Smith, Walrotiela subiculesa, Geotrichum candidum Link, Oidium, Penicillium crysogenum. Die genannten Pilze wurden von den Oberflächen der Wände und Decken von Bierbrauereien und Werken für die Herstellung von alkoholfreien Getränken ausgeschieden.
# (§2) […] In eine der Petri-Schalen wurde Nährboden mit 1 ml Azeton (Kontrolle) gegossen.
# (§3) In 18 bis 20 Stunden nach dem Vergießen des Nährbodens in die Petri-Schalen führte man die Inokulation der reinen Pilzkultur durch, die vorher an einem Schräg-Würzeagar während 15 Tage gezüchtet wurden. Die Inkubation führte man bei einer Temperatur von 25 bis 27°C während 5 Tage durch. Danach wurde der Durchmesser der Pilzkolonien gemessen und der Prozentsatz der Hemmung des Wachstums des Myzeliums (S) nach der Abbott -Formel gezählt: [formula] worin dc Durchmesser der Pilzkolonien in Kontrolle ist, de =Durchmesser der Pilzkolonien in einer Schale mit dem Nährboden ist, der Zink-bis-(N-vinyloxyethyl)dithiocarbamat enthält.
# Acremonium corvum = experiment: as above; type: cell-based; settings: 120 h, read-out: Hemmung des Myzeliums am 5. Tag des Wachstums, Acremonium corvum
# Source text: as §1, §2, §3
# [1] = tested on: Cladosporium cladosporioides; experiment: as above; type: cell-based; settings: Cladosporium cladosporioides, 120 h, read-out: Hemmung des Myzeliums am 5. Tag des Wachstums, Cladosporium cladosporioides
# Source text: as §1, §2, §3
# Cladosporium resinae = experiment: as above; type: cell-based; settings: Amorphotheca resinae, 120 h, read-out: Hemmung des Myzeliums am 5. Tag des Wachstums, Cladosporium resinae
# Source text: as §1, §2, §3
# Geotrichum candidum Link = experiment: as above; type: cell-based
# Source text: as §1, §2, §3
# Oidium = experiment: as above; type: cell-based
# Source text: as §1, §2, §3
# [2] = tested on: Penicillium charlesii Smith; experiment: as above; type: cell-based; settings: Penicillium charlesii, 120 h, read-out: Hemmung des Myzeliums am 5. Tag des Wachstums, Penicillium charlesii Smith
# Source text: as §1, §2, §3
# Penicillium chrysogenum = experiment: as above; type: cell-based
# Source text: as §1, §2, §3
# Walrotiela subiculesa = experiment: as above; type: cell-based; settings: 120 h, read-out: Hemmung des Myzeliums am 5. Tag des Wachstums, Walrotiela subiculesa
# Source text: as §1, §2, §3
# p. Escherichiae = experiment: Bactericidal activity, growth on agar medium; type: cell-based; settings: 37°C, 5 Tage
# Protocol: (§4) Die bakterizide Aktivität des Kalium N-(vinyloxyethyl)-dithiocarbamats gegenüber den Bakterien, die von der Oberfläche von Wänden und Decken der Produktionsräume von Brauereien und Fabriken zur Herstellunq von alkoholfreien Getränken ausgeschieden wurden und die zu p.p.Bacillus, Micrococcus, Pseudomonas, Escherichiae gehören, wurde geprüft.
# (§5) Es wurden wäßrige Lösungen des genannten Stoffes verschiedener Konzentration hergestellt, die so berechnet wurde, daß bei Einführung von 1 ml der Lösung in 25 ml geschmolzenen agarisierten Nährboden (45-50°C) die Konzentration des Stoffes im Nährboden von 0,003 bis 0,5% betrug. In 18 bis 24 Stunden wurde auf die Oberfläche des Nährbodens 0,1 ml der wäßrigen Suspension der eintägigen reinen Bakterienkulturen aufgetragen, die am Fleisch-Pepton-Agar gezüchtet wurden. Die Suspension wurde gleichmäßig verteilt. In Kontrollschalen wurden 0,1 ml Wasser auf der Oberfläche des Närhbodens verteilt.
# (§6) Die Inkubation führte man bei einer Temperatur von 37°C während 5 Tage durch.
# (§7) Die effektive Wirkung des Stoffes wurde nach dem Auftreten des Bakterienwachstums an der Oberfläche des Nährbodens bewertet.
# p.Bacillus = experiment: Bactericidal activity, growth on agar medium; type: cell-based; settings: 37°C, 5 Tage
# Protocol: as §4, §5, §6, §7
# p.Micrococcus = experiment: Bactericidal activity, growth on agar medium; type: cell-based; settings: 37°C, 5 Tage
# Protocol: as §4, §5, §6, §7
# p.Pseudomonas = experiment: Bactericidal activity, growth on agar medium; type: cell-based; settings: 37°C, 5 Tage
# Protocol: as §4, §5, §6, §7
# Bakterien = experiment: Bactericidal activity, summary over all tested bacteria; type: cell-based
# Protocol: as §4, §5, §6, §7
# [3] = Storage stability (qualitative); type: physicochemical; settings: result in words
# [4] = Acute toxicity in white mice; settings: mouse, in vivo, po
# [5] = Solubility in solvents (qualitative)
# [6] = Konzentration des Stoffes 0,00075 %
# [7] = Konzentration des Stoffes 0,0015 %
# [8] = Konzentration des Stoffes 0,003 %
# [9] = Konzentration des Stoffes 0,006 %
# [10] = Konzentration des Stoffes 0,012 %
smiles,measurement,setting,value
C=COCCNC(=S)[S-].[K+] [Kalium-N-(vinyloxyethyl)dithiocarbamat],inhibition of growth,Acremonium charticola; [6],90%
same,inhibition of growth at 0.0015 %,Acremonium charticola; [7],100%
same,inhibition of growth at 0.003 %,Acremonium charticola; [8],100%
same,inhibition of growth at 0.006 %,Acremonium charticola; [9],100%
same,inhibition of growth at 0.012 %,Acremonium charticola; [10],100%
same,inhibition of growth,Acremonium corvum; [6],94%
same,inhibition of growth at 0.0015 %,Acremonium corvum; [7],100%
same,inhibition of growth at 0.003 %,Acremonium corvum; [8],100%
same,inhibition of growth at 0.006 %,Acremonium corvum; [9],100%
same,inhibition of growth at 0.012 %,Acremonium corvum; [10],100%
same,inhibition of growth,[1]; [6],100%
same,inhibition of growth at 0.0015 %,[1]; [7],100%
same,inhibition of growth at 0.003 %,[1]; [8],100%
same,inhibition of growth at 0.006 %,[1]; [9],100%
same,inhibition of growth at 0.012 %,[1]; [10],100%
same,inhibition of growth,Cladosporium resinae; [6],70%
same,inhibition of growth at 0.0015 %,Cladosporium resinae; [7],100%
same,inhibition of growth at 0.003 %,Cladosporium resinae; [8],100%
same,inhibition of growth at 0.006 %,Cladosporium resinae; [9],100%
same,inhibition of growth at 0.012 %,Cladosporium resinae; [10],100%
same,inhibition of growth at 0.00075 %,"Geotrichum candidum Link; Geotrichum candidum, 120 h, Konzentration des Stoffes 0,00075 %, read-out: Hemmung des Myzeliums am 5. Tag des Wachstums, Geotrichum candidum Link",10%
same,inhibition of growth at 0.012 %,"Geotrichum candidum Link; Geotrichum candidum, 120 h, Konzentration des Stoffes 0,012 %, read-out: Hemmung des Myzeliums am 5. Tag des Wachstums, Geotrichum candidum Link",100%
same,"Hemmung des Myzeliums am 5. Tag des Wachstums, Geotrichum candidum Link",Geotrichum candidum Link; [7],40%
same,"Hemmung des Myzeliums am 5. Tag des Wachstums, Geotrichum candidum Link",Geotrichum candidum Link; [8],100%
same,"Hemmung des Myzeliums am 5. Tag des Wachstums, Geotrichum candidum Link",Geotrichum candidum Link; [9],100%
same,inhibition of growth at 0.00075 %,"Oidium; 120 h, Konzentration des Stoffes 0,00075 %, read-out: Hemmung des Myzeliums am 5. Tag des Wachstums, Oidium",40%
same,inhibition of growth at 0.003 %,"Oidium; 120 h, Konzentration des Stoffes 0,003 %, read-out: Hemmung des Myzeliums am 5. Tag des Wachstums, Oidium",100%
same,inhibition of growth at 0.006 %,"Oidium; 120 h, Konzentration des Stoffes 0,006 %, read-out: Hemmung des Myzeliums am 5. Tag des Wachstums, Oidium",100%
same,inhibition of growth at 0.012 %,"Oidium; 120 h, Konzentration des Stoffes 0,012 %, read-out: Hemmung des Myzeliums am 5. Tag des Wachstums, Oidium",100%
same,"Hemmung des Myzeliums am 5. Tag des Wachstums, Oidium",Oidium; [7],96%
same,inhibition of growth,[2]; [6],5%
same,inhibition of growth at 0.0015 %,[2]; [7],30%
same,inhibition of growth at 0.003 %,[2]; [8],55%
same,inhibition of growth at 0.006 %,[2]; [9],90%
same,inhibition of growth at 0.012 %,[2]; [10],100%
same,"Hemmung des Myzeliums am 5. Tag des Wachstums, Penicillium chrysogenum",Penicillium chrysogenum; [7],30%
same,"Hemmung des Myzeliums am 5. Tag des Wachstums, Penicillium chrysogenum",Penicillium chrysogenum; [8],55%
same,inhibition of growth at 0.00075 %,"Penicillium chrysogenum; Penicillium chrysogenum, 120 h, Konzentration des Stoffes 0,00075 %, read-out: Hemmung des Myzeliums am 5. Tag des Wachstums, Penicillium chrysogenum",0%
same,inhibition of growth at 0.006 %,"Penicillium chrysogenum; Penicillium chrysogenum, 120 h, Konzentration des Stoffes 0,006 %, read-out: Hemmung des Myzeliums am 5. Tag des Wachstums, Penicillium chrysogenum",90%
same,inhibition of growth at 0.012 %,"Penicillium chrysogenum; Penicillium chrysogenum, 120 h, Konzentration des Stoffes 0,012 %, read-out: Hemmung des Myzeliums am 5. Tag des Wachstums, Penicillium chrysogenum",100%
same,inhibition of growth at 0.00075 %,Walrotiela subiculesa; [6],90%
same,inhibition of growth at 0.0015 %,Walrotiela subiculesa; [7],100%
same,inhibition of growth at 0.003 %,Walrotiela subiculesa; [8],100%
same,inhibition of growth at 0.006 %,Walrotiela subiculesa; [9],100%
same,inhibition of growth at 0.012 %,Walrotiela subiculesa; [10],100%
same,"Konzentration der Salze der N-(vinyloxyethyl)dithiocarbaminsäure (100%), die das Wachstum der Bakterien am 5. Tag des Wachstums hemmen, p. Escherichiae",p. Escherichiae,"0,05%"
same,"Konzentration der Salze der N-(vinyloxyethyl)dithiocarbaminsäure (100%), die das Wachstum der Bakterien am 5. Tag des Wachstums hemmen, p.Bacillus",p.Bacillus,"0,05%"
same,"Konzentration der Salze der N-(vinyloxyethyl)dithiocarbaminsäure (100%), die das Wachstum der Bakterien am 5. Tag des Wachstums hemmen, p.Micrococcus",p.Micrococcus,"0,05%"
same,"Konzentration der Salze der N-(vinyloxyethyl)dithiocarbaminsäure (100%), die das Wachstum der Bakterien am 5. Tag des Wachstums hemmen, p.Pseudomonas",p.Pseudomonas,"0,05%"
same,"Konzentration, die das Wachstum der Bakterien vollständig hemmte",Bakterien,"0,05%"
same,Lagerbeständigkeit,[3],lagerbeständig
same,LD50,[4],1400 ± 350 mg/kg
same,Löslichkeit im Alkohol,[5]; Alkohol (Ethylalkohol),teilweise
same,Löslichkeit im Azeton,[5]; Azeton,teilweise
same,Löslichkeit im Diethylether,[5]; Diethylether,unlöslich
same,Löslichkeit in Wasser,[5]; Wasser,gut löslich
